Source: US8609852B2, “Thiazolyl mGluR5 antagonists and methods for their use” (Merck Sharp & Dohme Corp., priority 2004, dated 2013)
Counter-ions that a name gives are not always drawn.

Tests used:
[1] = molecular target: hmGluR5a receptor (Homo sapiens (Human), UniProt P41594); experiment: Calcium Flux Assay; assay type: cell-based; details: hmGluR5a/L38-20 cells, glutamate-evoked [Ca2+]i
Description: The activity of compounds was examined against the hmGluR5a receptor stably expressed in mouse fibroblast Ltk− cells (the hmGluR5a/L38-20 cell line). See generally Daggett et al., Neuropharmacology 34:871-886 (1995). Receptor activity was detected by changes in intracellular calcium ([Ca^2+]i) measured using the fluorescent calcium-sensitive dye, fura-2. hmGluR5a/L38-20 cells were plated onto 96-well plates, and loaded with 3 µM fura-2 for 1 h. Unincorporated dye was washed from the cells, and the cell plate was transferred to a custom-built 96-channel fluorimeter (SIBIA-SAIC, La Jolla, Calif.) which is integrated into a fully automated plate handling and liquid delivery system. Cells were excited at 350 and 385 nm with a xenon source combined with optical filters. Emitted light was collected from the sample through a dichroic mirror and a 510 nm interference filter and directed into a cooled CCD camera (Princeton Instruments). Image pairs were captured approximately every 1 s, and ratio images were generated after background subtraction. After a basal reading of 20 s, an EC80 concentration of glutamate ([…]) was added to the well, and the response evaluated for another 60 s. The glutamate-evoked increase in [Ca^2+]i in the presence of the screening compound was compared to the response of glutamate alone (the positive control).

[2] = molecular target: metabotropic glutamate receptor subtype 5 (Rattus norvegicus (Rat), UniProt P31424); experiment: [3H]-mGluR5 Antagonist Binding to Rodent Brain Membranes
Description: In accordance with Anderson J J, Rao S P, Rowe B, Giracello D R, Holtz G, Chapman D F, Tehrani L, Bradbury M J, Cosford N D, Varney M A, [^3H]Methoxymethyl-3-[(2-methyl-1,3-thiazol-4-yl)ethynyl]pyridine binding to metabotropic glutamate receptor subtype 5 in rodent brain: in vitro and in vivo characterization. J Pharmacol Exp Ther. 2002 December; 303 (3):1044-51, membranes were prepared (as described in Ransom R W and Stec N L (1988) Cooperative modulation of [^3H]MK-801 binding to the N-methyl-D-aspartate receptor-ion channel complex by L-glutamate, glycine, and polyamines. J Neurochem 51:830-836) using whole rat brain, or mGlu5^+/+ or mGlu5^−/− whole mouse brain.
Binding assays were performed as described in Schaffhauser H, Richards J G, Cartmell J, Chaboz S, Kemp J A, Klingelschmidt A, Messer J, Stadler H, Woltering T and Mutel V (1998) In vitro binding characteristics of a new selective group II metabotropic glutamate receptor radioligand, [^3H]LY354740, in rat brain. Mol Pharmacol 53:228-233) at room temperature with slight modifications. Briefly, membranes were thawed and washed once with assay buffer (50 mM HEPES, 2 mM MgCl2, pH 7.4), followed by centrifugation at 40,000×g for 20 min. The pellet was resuspended in assay buffer and briefly homogenized with a Polytron.
For protein linearity experiments, increasing concentrations of membrane protein were added to 96-well plates in triplicate and binding was initiated by addition of 20 nM [^3H]methoxymethyl-3-[(2-methyl-1,3-thiazol-4-yl)ethynyl]pyridine. The assay was incubated for 2 h and non-specific binding was determined using 10 μM MPEP. The binding was terminated by rapid filtration through glass-fiber filters (Unifilter-96 GF/B plate, Packard) using a 96-well plate Brandel cell harvester. Following addition of scintillant, the radioactivity was determined by liquid scintillation spectrometry. Protein measurements were performed by BioRad-DC Protein assay using bovine serum albumin as the standard.
Saturation binding experiments were performed in triplicate with increasing concentrations of [^3H]methoxymethyl-3-[(2-methyl-1,3-thiazol-4-yl)ethynyl]pyridine (1 pM to 100 nM). The time course of association was measured by the addition of 10 nM [^3H]methoxymethyl-3-[(2-methyl-1,3-thiazol-4-yl)ethynyl]pyridine to the membranes at different time points (0-240 min), followed by filtration. Dissociation was measured by the addition of 100 μM unlabeled methoxymethyl-3-[(2-methyl-1,3-thiazol-4-yl)ethynyl]pyridine at different time points to membranes previously incubated for 3 h with 10 nM [^3H]methoxymethyl-3-[(2-methyl-1,3-thiazol-4-yl)ethynyl]pyridine. For competition experiments, 100 μg membrane protein and 10 nM [^3H]methoxymethyl-3-[(2-methyl-1,3-thiazol-4-yl)ethynyl]pyridine was added to wells containing increasing concentration of the test compound in duplicate (methoxymethyl-3-[(2-methyl-1,3-thiazol-4-yl)ethynyl]pyridine or MPEP). [^3H]-3-Methoxy-5-(pyridin-2-ylethynyl)pyridine may also be used as the radioligand in the procedure described above. (See, Cosford, N. D. P.; Roppe, J.; Tehrani, L.; Seiders, T. J.; Schweiger, E. J. et al. [3H]-Methoxymethyl-MTEP and [3H]-methoxy-PEPy): Potent and selective radioligands for the Metabotropic Glutamate Subtype 5 (mGlu5) Receptor. Bioorg. Med. Chem. Lett. 2003, 13, 351-354.)

Chain of hmGluR5a receptor (P41594 other isoform, or with tags, fused parts or gaps): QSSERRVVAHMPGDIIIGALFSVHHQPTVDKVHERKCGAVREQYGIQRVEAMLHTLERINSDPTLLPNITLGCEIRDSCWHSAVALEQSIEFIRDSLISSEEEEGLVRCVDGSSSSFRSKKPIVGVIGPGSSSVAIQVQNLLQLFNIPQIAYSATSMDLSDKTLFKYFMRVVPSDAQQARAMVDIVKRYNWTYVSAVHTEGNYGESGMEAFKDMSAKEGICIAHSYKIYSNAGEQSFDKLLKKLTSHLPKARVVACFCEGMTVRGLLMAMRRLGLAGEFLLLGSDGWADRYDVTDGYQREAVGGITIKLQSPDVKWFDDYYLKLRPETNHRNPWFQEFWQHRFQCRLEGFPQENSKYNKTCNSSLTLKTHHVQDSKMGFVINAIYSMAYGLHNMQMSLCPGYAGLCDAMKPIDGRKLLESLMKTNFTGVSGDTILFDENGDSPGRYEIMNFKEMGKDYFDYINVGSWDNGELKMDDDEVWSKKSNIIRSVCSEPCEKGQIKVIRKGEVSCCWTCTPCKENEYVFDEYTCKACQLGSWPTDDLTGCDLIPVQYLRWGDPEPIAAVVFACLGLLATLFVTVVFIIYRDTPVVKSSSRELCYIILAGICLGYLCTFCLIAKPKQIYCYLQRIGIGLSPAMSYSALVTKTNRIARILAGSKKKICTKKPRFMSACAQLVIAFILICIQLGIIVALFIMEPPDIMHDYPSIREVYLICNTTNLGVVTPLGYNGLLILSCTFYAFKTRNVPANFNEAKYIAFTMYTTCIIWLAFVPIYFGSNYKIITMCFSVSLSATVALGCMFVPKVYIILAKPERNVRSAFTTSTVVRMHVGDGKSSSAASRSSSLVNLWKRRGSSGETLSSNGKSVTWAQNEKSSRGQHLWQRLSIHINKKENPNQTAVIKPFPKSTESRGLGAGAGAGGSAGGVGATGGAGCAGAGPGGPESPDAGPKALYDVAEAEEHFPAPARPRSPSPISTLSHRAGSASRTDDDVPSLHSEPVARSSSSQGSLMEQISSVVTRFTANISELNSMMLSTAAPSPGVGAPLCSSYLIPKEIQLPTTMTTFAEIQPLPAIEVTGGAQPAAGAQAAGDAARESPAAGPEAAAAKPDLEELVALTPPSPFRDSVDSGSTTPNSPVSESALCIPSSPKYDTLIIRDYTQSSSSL
Chain of metabotropic glutamate receptor subtype 5 (P31424 21-1203): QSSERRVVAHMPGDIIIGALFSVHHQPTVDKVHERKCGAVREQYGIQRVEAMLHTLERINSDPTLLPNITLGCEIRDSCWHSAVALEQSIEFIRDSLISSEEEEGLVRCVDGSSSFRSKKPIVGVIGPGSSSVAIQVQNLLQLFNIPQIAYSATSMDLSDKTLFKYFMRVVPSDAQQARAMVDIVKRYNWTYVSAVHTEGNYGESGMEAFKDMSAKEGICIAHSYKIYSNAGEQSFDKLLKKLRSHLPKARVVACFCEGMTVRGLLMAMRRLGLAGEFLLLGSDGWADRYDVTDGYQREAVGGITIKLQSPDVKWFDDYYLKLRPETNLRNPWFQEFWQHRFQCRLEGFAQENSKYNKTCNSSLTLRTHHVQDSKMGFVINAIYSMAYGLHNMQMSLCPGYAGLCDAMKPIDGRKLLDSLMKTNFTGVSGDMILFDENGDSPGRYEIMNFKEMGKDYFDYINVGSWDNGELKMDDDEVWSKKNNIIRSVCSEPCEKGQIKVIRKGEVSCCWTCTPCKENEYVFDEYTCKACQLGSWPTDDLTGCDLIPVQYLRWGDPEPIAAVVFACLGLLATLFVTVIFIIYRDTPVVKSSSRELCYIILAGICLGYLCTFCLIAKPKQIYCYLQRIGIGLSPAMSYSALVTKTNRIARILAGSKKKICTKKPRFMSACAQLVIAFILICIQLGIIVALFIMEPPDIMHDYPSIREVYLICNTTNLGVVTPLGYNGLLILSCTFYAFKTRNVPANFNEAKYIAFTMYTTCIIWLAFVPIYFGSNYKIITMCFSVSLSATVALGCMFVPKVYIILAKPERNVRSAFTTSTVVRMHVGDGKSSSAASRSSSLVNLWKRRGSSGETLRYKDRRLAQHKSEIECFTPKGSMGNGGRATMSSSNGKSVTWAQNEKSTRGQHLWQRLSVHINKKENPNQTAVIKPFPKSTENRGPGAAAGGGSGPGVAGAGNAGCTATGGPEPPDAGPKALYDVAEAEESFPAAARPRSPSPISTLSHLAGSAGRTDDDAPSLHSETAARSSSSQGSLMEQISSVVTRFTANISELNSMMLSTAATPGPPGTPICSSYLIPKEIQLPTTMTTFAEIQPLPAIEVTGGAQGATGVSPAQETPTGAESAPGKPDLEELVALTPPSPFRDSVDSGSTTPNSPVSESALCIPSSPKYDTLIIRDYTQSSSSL

| SMILES | IC50 [1] [nM] | Ki [2] [nM] |
| --- | --- | --- |
| Cc1nc(C#Cc2ccc(-c3ccccc3C#N)nc2)cs1 [Example 4, 2-{5-[(2-methyl-1,3-thiazol-4-yl)ethynyl]pyridin-2-yl}benzonitrile] | 2.2 |  |
| Cc1nc(C#Cc2ccc(-c3ccccc3C)nc2)cs1 [Example 5, 2-(2-methylphenyl)-5-[(2-methyl-1,3-thiazol-4-yl)ethynyl]pyridine] | 6.3 | 1 |
| COc1ccc(F)cc1-c1ccc(C#Cc2csc(C)n2)cn1 [Example 6, 2-(5-fluoro-2-methoxyphenyl)-5-[(2-methyl-1,3-thiazol-4-yl)ethynyl]pyridine] | 4.4 | 1.2 |
| Cc1nc(C#Cc2ccc(-c3ccccc3Cl)nc2)cs1 [Example 7, 2-(2-chlorophenyl)-5-[(2-methyl-1,3-thiazol-4-yl)ethynyl]pyridine] | 1.1 | 0.7 |
| Cc1nc(C#Cc2ccc(-c3ccc(F)cc3C)nc2)cs1 [Example 9, 2-(4-fluoro-2-methylphenyl)-5-[(2-methyl-1,3-thiazol-4-yl)ethynyl]pyridinium trifluoroacetate] | 1.1 |  |
| COc1cc(F)ccc1-c1ccc(C#Cc2csc(C)n2)cn1 [Example 11, 2-(4-fluoro-2-methoxyphenyl)-5-[(2-methyl-1,3-thiazol-4-yl)ethynyl]pyridinium trifluoroacetate] | 1.3 |  |
| Cc1nc(C#Cc2cnc(-c3ccccc3Cl)nc2)cs1 [Example 15, 2-(2-chlorophenyl)-5-[(2-methyl-1,3-thiazol-4-yl)ethynyl]pyrimidine] | 1 | 2.6 |
| Cc1nc(C#Cc2ccc(N3CCCCC3)nc2)cs1 [Example 19, 5-[(2-methyl-1,3-thiazol-4-yl)ethynyl]-2-piperidin-1-ylpyridine] | 1.8 | 2.8 |
| Cc1nc(C#Cc2ccc(N3CCCC3C)nc2)cs1 (stereo not drawn) [Example 20, 2-(2-methylpyrrolidin-1-yl)-5-[(2-methyl-1,3-thiazol-4-yl)ethynyl]pyridine] | 1 | 1.4 |
| Cc1nc(C#Cc2cnc(N3CCCC3C)nc2)cs1 (stereo not drawn) [Example 21, 2-(2-methylpyrrolidin-1-yl)-5-[(2-methyl-1,3-thiazol-4-yl)ethynyl]pyrimidine] | 1.5 | 1.5 |
| Cc1nc(C#Cc2cnc(NC(C)(C)C)nc2)cs1 [Example 22, N-(tert-butyl)-5-[(2-methyl-1,3-thiazol-4-yl)ethynyl]pyrimidin-2-amine] | 1.2 | 0.9 |
| Cc1nc(C#Cc2cnc(OC(C)C)nc2)cs1 [Example 25, 2-isopropoxy-5-[(2-methyl-1,3-thiazol-4-yl)ethynyl]pyrimidine] | 1.4 | 9 |
| Cc1nc(C#Cc2ccc(OC(C)(C)C)nc2)cs1 [Example 27, 2-tert-butoxy-5-[(2-methyl-1,3-thiazol-4-yl)ethynyl]pyridine] | 1.4 | 1 |
| Cc1nc(C#Cc2ccc(SC(C)(C)C)nc2)cs1 [Example 28, 2-(tert-butylthio)-5-[(2-methyl-1,3-thiazol-4-yl)ethynyl]pyridine] | 1.7 | 0.9 |
| Cc1nc(C#Cc2ccc(C3CCCCC3)nc2)cs1 [Example 30, 2-cyclohexyl-5-[(2-methyl-1,3-thiazol-4-yl)ethynyl]pyridine] | 2.2 | 2.3 |
| Cc1nc(C#Cc2ccc(C(C)(C)C)nc2)cs1 [Example 31, 2-tert-butyl-5-[(2-methyl-1,3-thiazol-4-yl)ethynyl]pyridine] | 2.9 | 12.2 |
| Cc1nc(C#Cc2cnc(C3CCCCC3)nc2)cs1 [Example 32, 2-cyclohexyl-5-[(2-methyl-1,3-thiazol-4-yl)ethynyl]pyrimidine] | 1 | 4.8 |
| Cc1nc(C#Cc2ccc(-c3ccc(F)cc3F)nc2)cs1 [Example 33] | 19 | 7 |
| Cc1cc(C#N)cc(-c2ccc(C#Cc3csc(C)n3)cn2)c1 [Example 34] | 18 | 15 |
| Cc1nc(C#Cc2ccc(-c3cccc(-n4cccn4)c3)nc2)cs1 [Example 87] | 2 |  |
| Cc1nc(C#Cc2cnc(-c3ccccc3F)nc2)cs1 [Example 106] |  | 6 |

More lines, now with the values ahead:

| IC50 [1] [nM] | Ki [2] [nM] | SMILES |
| --- | --- | --- |
| 1 | 2 | Cc1nc(C#Cc2ccc(-c3ccccc3F)nc2)cs1 [Example 2, 2-(2-fluorophenyl)-5-[(2-methyl-1,3-thiazol-4-yl)ethynyl]pyridine] |
| 0.9 | 2.7 | Cc1nc(C#Cc2ccc(-c3cccc(F)c3)nc2)cs1 [Example 3, 2-(3-fluorophenyl)-5-[(2-methyl-1,3-thiazol-4-yl)ethynyl]pyridine] |
| 1 | 0.9 | COc1ccccc1-c1ccc(C#Cc2csc(C)n2)cn1 [Example 8, 2-(2-methoxyphenyl)-5-[(2-methyl-1,3-thiazol-4-yl)ethynyl]pyridine] |
| 0.7 |  | COc1c(F)cc(F)cc1-c1ccc(C#Cc2csc(C)n2)cn1 [Example 10, 2-(3,5-difluoro-2-methoxyphenyl)-5-[(2-methyl-1,3-thiazol-4-yl)ethynyl]pyridinium trifluoroacetate] |
| 0.6 | 1.1 | Cc1nc(C#Cc2ccc(-c3cc(F)ccc3C)nc2)cs1 [Example 12, 2-(5-fluoro-2-methylphenyl)-5-[(2-methyl-1,3-thiazol-4-yl)ethynyl]pyridinium trifluoroacetate] |
| 0.6 | 0.6 | Cc1nc(C#Cc2cnc(-c3ccccc3C)nc2)cs1 [Example 13, 2-(2-methylphenyl)-5-[(2-methyl-1,3-thiazol-4-yl)ethynyl]pyrimidine] |
| 0.8 | 7.5 | CSc1ccccc1-c1ncc(C#Cc2csc(C)n2)cn1 [Example 14, 5-[(2-methyl-1,3-thiazol-4-yl)ethynyl]-2-[2-(methylthio)phenyl]pyrimidine] |
| 0.4 | 8.6 | Cc1nc(C#Cc2cnc(-c3cccc(C)c3C)nc2)cs1 [Example 16, 2-(2,3-dimethylphenyl)-5-[(2-methyl-1,3-thiazol-4-yl)ethynyl]pyrimidine] |
| 0.4 | 3.8 | Cc1nc(C#Cc2ccc(-n3ccc4cccnc43)nc2)cs1 [Example 17, 1-{5-[(2-methyl-1,3-thiazol-4-yl)ethynyl]pyridin-2-yl}-1H-pyrrolo[2,3-b]pyridine] |
| 0.3 | 2.6 | Cc1nc(C#Cc2cnc(N3CCCCC3)nc2)cs1 [Example 24, 5-[(2-methyl-1,3-thiazol-4-yl)ethynyl]-2-piperidin-1-ylpyrimidine] |
| 0.1 | 2 | Cc1nc(C#Cc2ccc(OC(C)C)nc2)cs1 [Example 26, 2-isopropoxy-5-[(2-methyl-1,3-thiazol-4-yl)ethynyl]pyridinium trifluoroacetate] |
| 0.5 | 10 | Cc1nc(C#Cc2cnc(SC(C)(C)C)nc2)cs1 [Example 29, 2-(tert-butylthio)-5-[(2-methyl-1,3-thiazol-4-yl)ethynyl]pyrimidine] |
